What was measured:
Type in all cases: biochemical
[1] = molecular target: T1, Aβ42 (Homo sapiens, UniProt P05067); assay: Aβ42 aggregation inhibition experiments (gel/western blot, TEM); conditions: flavonoid 50 μM, 24 h
T1 construct: purchased Peptide Institute, Inc. (Osaka, Japan)
Method: (§1) To verify whether a series of nine flavonoids can modulate the aggregation of Aβ with and without metal ions, the molecular weight (MW) distribution and morphology of the resultant Aβ species were determined by gel electrophoresis with western blotting (gel/western blot) using an anti-Aβ antibody (6E10) and transmission electron microscopy (TEM), respectively. Two types of experiments were carried out employing two major Aβ isoforms, i.e., Aβ42 and Aβ40:[25] (i) inhibition studies to identify the effect of 1–5, 1a, 1b, 4a, and 4b on the formation of Aβ aggregates; (ii) disaggregation studies to evaluate if the flavonoids with reactivities towards Aβ aggregation in inhibition studies can disassemble preformed Aβ aggregates or modulate their further aggregation, as illustrated in Fig. 4 and S5–S9. ^† Moreover, the solutions containing the flavonoids and Cu(II) were probed by electronic absorption (Abs) spectroscopy to monitor their metal binding. […] As expected, no Abs change of 1a and 4a composed of methoxy groups on the A ring was detected by addition of Cu(II). […]
(§2) Ab Aggregation Experiments. Ab was dissolved in ammonium hydroxide [1% w/w NH4OH (aq)] and the resulting solution was aliquoted, lyophilized overnight, and stored at –80 °C. A stock solution of Ab was then prepared by dissolving the lyophilized peptide with NH4OH (1% w/w, aq; 10 µL) and diluting with ddH2O. All Ab samples were prepared following previously reported procedures.21,22 The concentration of the peptide solution was determined by measuring its […]
(§3) solution (20 mM HEPES, pH 7.4, 150 mM NaCl) was used for preparing Ab samples. For the inhibition studies, flavonoids (final concentration, 50 µM; 1% v/v DMSO) were added to the samples of Ab (25 µM) in the absence and presence of CuCl2 or ZnCl2 (25 µM) followed by incubation for 24 h at 37 °C with constant agitation. For the disaggregation studies, Ab (25 µM) was incubated with and without CuCl2 or ZnCl2 (25 µM) for 24 h at 37 °C with constant agitation to generate preformed Ab aggregates. The resultant Ab aggregates were then treated with flavonoids (50 µM) and incubated for additional 24 h with constant agitation. For the additional disaggregation experiments, preformed Ab42 aggregates (25 µM) or Ab42 seeds (10% v/v) with or without metal ions (25 µM for CuCl2 and ZnCl2) were incubated with flavonoids (50 µM) for 24 h with constant agitation. The resultant Ab aggregates were then treated with freshly prepared Ab42 […]
(25 µM) and incubated for additional 24 h with constant agitation.
Gel/Western Blot. The resultant Ab species from the aggregation experiments were analyzed by gel/Western blot using an anti-Ab antibody (6E10, Covance, Princeton, NJ, USA).21,22 Each sample (10 µL) was separated on a 10–20% tricine gel (Invitrogen). Following separation, the proteins were transferred onto nitrocellulose membranes and blocked with bovine serum albumin (BSA, 3% w/v; Sigma-Aldrich) in Tris-buffered saline (TBS) containing 0.1% v/v Tween-20 (Sigma-Aldrich) (TBS-T) for 4 h at room temperature or overnight at 4 °C. The membranes were incubated with 6E10 (1:2,000) in the solution of BSA (2% w/v in TBS-T) for 4 h at room temperature. […] A homemade ECL kit21–23 was used to visualize gel/Western blots on a ChemiDoc MP Imaging System (Bio-Rad).
TEM. Samples for TEM were prepared following previously reported methods.22,24 Glow-discharged grids (Formvar/Carbon 300-mesh; Electron Microscopy Sciences, Hatfield, PA, USA) were treated with Ab samples (25 µM; 7.5 µL) for 2 min at room temperature. Excess sample was removed using filter paper followed by washing with ddH2O (3x). Each grid incubated with uranyl […]

[2] = test system: preformed Aβ42 and Aβ40 aggregates; assay: Disaggregation experiments with preformed Aβ aggregates; conditions: Aβ42 and Aβ40, with and without Cu(II), Zn(II); flavonoid 50 μM; 24 h
Method: as §1, §2
as §3, with “agitation.” for “agitation. For the additional disaggregation experiments, preformed Ab42 aggregates (25 µM) or Ab42 seeds (10% v/v) with or without metal ions (25 µM for CuCl2 and ZnCl2) were incubated with flavonoids (50 µM) for 24 h with constant agitation. The resultant Ab aggregates were then treated with freshly prepared Ab42”

[3] = molecular target: T1, Aβ42; assay: Dot blot assay with anti-oligomer (A11) and anti-fibril (OC) antibodies; conditions: flavonoid 200 μM, up to 24 h
Description: Moreover, to investigate the effects of the flavonoids on the oligomerization and fibrilization of metal-free Aβ42 and metal–Aβ42, we performed the dot blot assay employing anti-oligomer (A11) and anti-fibril (OC) antibodies,[23] as illustrated in Fig. S12. ^† It should be noted that the thioflavin-T (ThT) assay utilized for monitoring the formation of β-sheet-rich aggregates cannot be carried out under our experimental conditions since the absorption windows of 4, 5, and 4b interfere with the excitation and emission wavelengths of ThT (Fig. S13 ^†). […]
Dot Blot Assay. The samples containing Ab42 (100 µM) with or without CuCl2 or ZnCl2 (100 µM) in the absence and presence of flavonoids (200 µM; 1% v/v DMSO) were prepared in 20 mM HEPES, pH 7.4, 150 mM NaCl and incubated for various time points (0, 1, 2, 3, 4, 6, 12, and 24 h). […] The membrane was incubated with a primary antibody [i.e., 6E1026 for Ab species (1:2,000), A1126 for Ab oligomers (1:1,000; Invitrogen, Carlsbad, CA, USA), or OC26 for Ab fibrils (1:2,000; Merch Millipore, Billerica, MA, USA)] in the solution of BSA (2% w/v in TBS-T) for 4 h at room temperature. […] A homemade ECL kit21–23 was used to visualize the results on a ChemiDoc MP Imaging System.
The intensity observed from A11- or OC-detectable Ab species was quantified, relative to that detected from 6E10, by the ImageJ software. […]

[4] = Zn(II)–Aβ42, Aβ 25 μM, Zn(II) 25 μM
[5] = Cu(II)–Aβ42 or Zn(II)–Aβ42 100 μM
[6] = Cu(II)–Aβ42, Aβ 25 μM, Cu(II) 25 μM

T1 sequence (P05067 672-713 limits assumed): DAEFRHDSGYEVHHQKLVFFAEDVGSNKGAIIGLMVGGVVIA

SMILES	morphology of resultant aggregates (TEM) ([1]; Cu(II)–Aβ42)	MW distribution of resultant species (gel/western blot) [1, 4]	morphology of resultant aggregates (TEM) ([1]; Zn(II)–Aβ42)	MW distribution of resultant species (gel/western blot) ([1]; metal-free Aβ42 25 μM, 37 °C)	morphology of resultant aggregates (TEM) ([1]; metal-free Aβ42)	effect on preformed metal-free Aβ and metal–Aβ aggregates [2]	A11- and OC-detectable signals (oligomers and fibrils) ([3]; metal-free Aβ42 100 μM)	A11- and OC-detectable signals (oligomers and fibrils) [3, 5]	MW distribution of resultant species (gel/western blot) [1, 6]
O=c1cc(-c2ccccc2)oc2c(Cl)c(O)c(O)c(O)c12 [compound 5, 8-chlorobaicalein]	A mixture of amorphous and small fibrillary aggregates	smearing bands at ca. 25–240 kDa	both amorphous and fibrillary Zn(II)–Aβ42 aggregates	discernably reduced the signal intensity of the bands	smaller fibrils and less structured aggregates	could disassemble preformed metal-free Aβ and metal–Aβ aggregates	the formation of Aβ oligomers and fibrils were reduced		
O=c1c(-c2ccccc2)coc2cc(O)c(O)c(O)c12 [4b, 5,6,7-trihydroxyisoflavone]	chopped and thin fibrils	smearing bands at ca. 25–240 kDa	small amorphous aggregates	discernably reduced the signal intensity of the bands	smaller fibrils and less structured aggregates	could disassemble preformed metal-free Aβ and metal–Aβ aggregates	the formation of Aβ oligomers and fibrils were reduced	gradually decreased signal intensities	
O=c1cc(-c2ccccc2)oc2ccc(O)c(O)c12 [compound 3, 5,6-dihydroxyflavone]	A mixture of amorphous and small fibrillary aggregates	increased signal intensity between ca. 25–75 kDa	small amorphous aggregates			the reactivity was shown only in the presence of metal ions			more intense smearing
O=c1cc(-c2ccccc2)oc2cc(O)cc(O)c12 [compound 1, chrysin]	did not indicate any noticeable morphological changes	a significant change in the MW distribution was not indicated	did not indicate any noticeable morphological changes			less noticeably affected	not significantly varied	not significantly varied	
O=c1cc(-c2ccccc2)oc2cc(O)c(O)cc12 [compound 2, 6,7-dihydroxyflavone]	did not indicate any noticeable morphological changes	a significant change in the MW distribution was not indicated	did not indicate any noticeable morphological changes			less noticeably affected	not significantly varied	not significantly varied	
O=c1cc(-c2ccccc2)oc2cc(O)c(O)c(O)c12 [compound 4, baicalein]	chopped and thin fibrils	smearing bands at ca. 25–240 kDa	chopped fibrils and amorphous assemblies	discernably reduced the signal intensity of the bands	shorter and thinner fibrils	could disassemble preformed metal-free Aβ and metal–Aβ aggregates	the formation of Aβ oligomers and fibrils were reduced		enhanced level of dodecameric or larger Aβ42 aggregates
O=c1c(-c2ccc(O)c(O)c2)coc2cc(O)c(O)c(O)c12 [compound 6, 3-(3,4-dihydroxyphenyl)-5,6,7-trihydroxy-4H-chromen-4-one]	chopped fibrils	smearing bands from ca. 20–240 kDa were noticeably detected	a mixture of amorphous and fibrillary aggregates	reduced at ca. 4–20 kDa and above ca. 100 kDa	shorter and thinner fibrils	affected their corresponding preformed Aβ aggregates and seeds	significantly decreased A11- and OC-detectable signal intensities	significantly decreased A11- and OC-detectable signal intensities	smearing bands from ca. 20–240 kDa were noticeably detected
